The target of one test is human CB1 receptor (Homo sapiens (Human), UniProt P21554). Description: cAMP assay, CHO cells expressing human CB1 receptors. The format is cell-based. As for the experimental part: (§1) CHO cells expressing human CB1 or CB2 receptors are seeded 17-24 hours prior to the experiment 50.000 cells per well in a black 96 well plate with flat clear bottom (Corning Costar #3904) in DMEM (Invitrogen No. 31331), lx HT supplement, with 10% fetal calf serum and incubated at 5% CO2 and 37° C. in a humidified incubator. The growth medium was exchanged with Krebs Ringer Bicarbonate buffer with 1 mM IBMX and incubated at 30° C. for 30 min. Compounds were added to a final assay volume of 100 μl and incubated for 30 min at 30° C. Using the cAMP-Nano-TRF detection kit the assay (Roche Diagnostics) was stopped by the addition of 50 μl lysis reagent (Tris, NaCl, 1.5% Triton X100, 2.5% NP40, 10% NaN3) and 50 μl detection solutions (20 μM mAb Alexa700-cAMP 1:1, and 48 μM Ruthenium-2-AHA-cAMP) and shaken for 2 h at room temperature. The time-resolved energy transfer is measured by a TRF reader (Evotec Technologies GmbH), equipped with a ND:YAG laser as excitation source. The plate is measured twice with the excitation at 355 nm and at the emission with a delay of 100 ns and a gate of 100 ns, total exposure time 10 s at 730 (bandwidth 30 nm) or 645 nm (bandwidth 75 nm), respectively. The FRET signal is calculated as follows: FRET=T730-Alexa730-P(T645-B645) with P=Ru730-B730/Ru645-B645, where T730 is the test well measured at 730 nM, T645 is the test well measured at 645 nm, B730 and B645 are the buffer controls at 730 nm and 645 nm, respectively. cAMP content is determined from the function of a standard curve spanning from 10 μM to 0.13 nM cAMP.
human CB1 receptor, sequence (P21554 whole entry): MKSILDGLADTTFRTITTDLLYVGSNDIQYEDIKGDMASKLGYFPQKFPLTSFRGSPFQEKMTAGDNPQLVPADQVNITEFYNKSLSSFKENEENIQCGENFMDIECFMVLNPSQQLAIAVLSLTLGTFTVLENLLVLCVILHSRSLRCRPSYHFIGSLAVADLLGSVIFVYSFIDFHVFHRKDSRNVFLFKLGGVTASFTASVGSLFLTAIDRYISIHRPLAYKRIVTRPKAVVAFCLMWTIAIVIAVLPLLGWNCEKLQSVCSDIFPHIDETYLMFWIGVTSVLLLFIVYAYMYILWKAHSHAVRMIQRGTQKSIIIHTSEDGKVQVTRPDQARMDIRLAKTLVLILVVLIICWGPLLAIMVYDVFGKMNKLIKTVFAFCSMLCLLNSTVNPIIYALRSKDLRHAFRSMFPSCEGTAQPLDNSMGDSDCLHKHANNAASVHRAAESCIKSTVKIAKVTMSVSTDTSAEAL
(§2) EC50 values were determined using Activity Base analysis (ID Business Solution, Limited). The EC50 values for a wide range of cannabinoid agonists generated from this assay were in agreement with the values published in the scientific literature.
In general terms: Changes in cAMP serve as a functional read-out for many G protein-coupled receptors.

Another test concerns the target human CB2 receptor (Homo sapiens (Human), UniProt P34972). Description: cAMP assay, CHO cells expressing human CB2 receptors. It is filed as cell-based. As for the experimental part:
as §1, §2

Where [1] appears, read: functional cAMP assay, CHO cells expressing human CB1, read-out: human CB1 EC50.
Setting [2] is: functional cAMP assay, CHO cells expressing human CB2, read-out: human CB2 EC50.

Results on 22 compounds are retold here after US9512132B2, “Pyrazole compounds as CB2 agonists” (Hoffmann-La Roche Inc., priority 2013, dated 2016).

The EC50 is the concentration giving half of the maximal effect.

Like-named read-outs stand apart in the source and are kept apart here. A value given as a limit tells only on which side of the number the result lay.

human CB2 receptor, sequence (P34972 whole entry): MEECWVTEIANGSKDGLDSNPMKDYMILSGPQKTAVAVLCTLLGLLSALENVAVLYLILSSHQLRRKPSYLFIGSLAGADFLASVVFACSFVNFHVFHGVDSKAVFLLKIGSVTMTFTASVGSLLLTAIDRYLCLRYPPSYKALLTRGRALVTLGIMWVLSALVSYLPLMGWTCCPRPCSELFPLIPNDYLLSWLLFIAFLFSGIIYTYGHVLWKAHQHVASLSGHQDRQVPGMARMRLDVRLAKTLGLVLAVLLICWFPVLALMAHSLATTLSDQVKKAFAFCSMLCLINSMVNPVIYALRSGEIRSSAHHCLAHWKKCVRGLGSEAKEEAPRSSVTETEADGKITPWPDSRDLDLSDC

As for `CC(C)(C)c1nc(N2CCC(F)(F)C2)c2cnn(Cc3ccc(F)cc3Cl)c2n1` [Example 6, 6-tert-Butyl-1-[(2-chloro-4-fluorophenyl)methyl]-4-(3,3-difluoro-pyrrolidin-1-yl)-1H-pyrazolo[3,4-d]pyrimidine], the EC50 was more than 10 µM on human CB1 receptor (setting [1]) and 0.0059 µM on human CB2 receptor (setting [2]).

As for `CC(C)(C)c1nc(N2CC[C@H](O)C2)c2cnn(Cc3ncccc3Cl)c2n1` [Example 32, (S)-1-[6-tert-Butyl-1-(3-chloro-pyridin-2-ylmethyl)-1H-pyrazolo[3,4-d]pyrimidin-4-yl]-pyrrolidin-3-ol], the EC50 was more than 10 µM on human CB1 receptor (setting [1]) and 0.0015 µM at human CB2 receptor (setting [2]).

As for `CC(C)(C)c1nc(N2CCC(F)(F)C2)c2cnn(Cc3ccccc3C(F)(F)F)c2n1` [Example 7, 6-tert-Butyl-4-(3,3-difluoro-pyrrolidin-1-yl)-1-[(2-trifluoromethylphenyl)methyl]-1H-pyrazolo[3,4-d]pyrimidine], the results for the half-maximal effective concentration (EC50) at human CB1 receptor (setting [1]) and at human CB2 receptor (setting [2]) were more than 10 µM and 0.0011 µM, respectively.

As for `Cn1nncc1Cn1ncc2c(N3CC=C(F)C3)nc(C(C)(C)C)nc21` [Example 20, 6-tert-Butyl-4-(3-fluoro-2,5-dihydro-pyrrol-1-yl)-1-(3-methyl-3H-[1,2,3]triazol-4-ylmethyl)-1H-pyrazolo[3,4-d]pyrimidine], the values for the EC50 at human CB1 receptor (setting [1]) and on human CB2 receptor (setting [2]) were more than 10 µM and 0.0016 µM, respectively.

On to `CC(C)(C)c1nc(N2CCC(F)(F)C2)c2cnn(C3CS(=O)(=O)C3)c2n1` [Example 13, 6-tert-Butyl-4-(3,3-difluoro-pyrrolidin-1-yl)-1-(1,1-dioxo-1λ^6-thietan-3-yl)-1H-pyrazolo[3,4-d]pyrimidine], for which the EC50 on human CB1 receptor (setting [1]) is more than 10 µM; at human CB2 receptor (setting [2]), 0.0196 µM.

Turning to `CC(C)(C)c1nc(N2CCC(F)(F)C2)c2cnn(Cc3nnnn3C3CC3)c2n1` [Example 16, 6-tert-Butyl-1-(1-cyclopropyl-1H-tetrazol-5-ylmethyl)-4-(3,3-difluoro-pyrrolidin-1-yl)-1H-pyrazolo[3,4-d]pyrimidine], the 50% effective concentration (EC50) was more than 10 µM at human CB1 receptor (setting [1]) and 0.0006 µM on human CB2 receptor (setting [2]).

For the compound `COc1ccc(Cn2ncc3c(N4CCC(F)(F)C4)cc(C4CC4)nc32)cc1` [Example 24, 6-Cyclopropyl-4-(3,3-difluoro-pyrrolidin-1-yl)-1-[(4-methoxyphenyl)methyl]-1H-pyrazolo[3,4-b]pyridine], the EC50 on human CB1 receptor (setting [1]) was more than 10 µM; on human CB2 receptor (setting [2]) it was 0.0175 µM.

Consider `COc1ccc(Cn2ncc3c(N4CC[C@H](O)C4)nc(C(C)(C)C)nc32)cc1` [Example 23, (S)-1-[6-tert-Butyl-1-[(4-methoxyphenyl)methyl]-1H-pyrazolo[3,4-d]pyrimidin-4-yl]-pyrrolidin-3-ol], for which the 50% effective concentration (EC50) was more than 10 µM on human CB1 receptor (setting [1]) and 0.0055 µM on human CB2 receptor (setting [2]).

For `COC[C@H]1CCCN1c1nc(C(C)(C)C)nc2c1cnn2Cc1ccccc1C(F)(F)F` [Example 35, 6-tert-Butyl-4-((R)-2-methoxymethyl-pyrrolidin-1-yl)-1-[(2-trifluoromethylphenyl)methyl]-1H-pyrazolo[3,4-d]pyrimidine], the EC50 on human CB1 receptor (setting [1]) was more than 10 µM; at human CB2 receptor (setting [2]) it was 0.0133 µM.

In the case of `Cn1nncc1Cn1ncc2c(N3CCC(F)(F)C3)nc(C(C)(C)C)nc21` [Example 19, 6-tert-Butyl-4-(3,3-difluoro-pyrrolidin-1-yl)-1-(3-methyl-3H-[1,2,3]triazol-4-ylmethyl)-1H-pyrazolo[3,4-d]pyrimidine], the figures for the EC50 on human CB1 receptor and on human CB2 receptor were more than 10 µM and 0.0014 µM, respectively.

On to `CC(C)(C)c1nc(N2CCC(F)(F)C2)c2cnn(CC(=O)c3ccccn3)c2n1` [Example 22, 2-[6-tert-Butyl-4-(3,3-difluoro-pyrrolidin-1-yl)-pyrazolo[3,4-d]pyrimidin-1-yl]-1-pyridin-2-yl-ethanone], for which the figures for the concentration for a half-maximal effect (EC50) on human CB1 receptor (setting [1]) and on human CB2 receptor (setting [2]) were more than 10 µM and 0.0084 µM, respectively.

Regarding `CC(C)(C)COc1nc(N2CCC(F)(F)C2)c2cnn(Cc3ccccc3C(F)(F)F)c2n1` [Example 38, 4-(3,3-Difluoropyrrolidin-1-yl)-6-(2,2-dimethylpropoxy)-1-[[2-(trifluoromethyl)phenyl]methyl]pyrazolo[3,4-d]pyrimidine], the EC50 was more than 10 µM at human CB1 receptor (setting [1]) and 0.016 µM on human CB2 receptor (setting [2]).

On to `CC(C)(C)c1nc(N2CCC(F)(F)C2)c2cnn(Cc3cccnc3Cl)c2n1` [Example 12, 6-tert-Butyl-1-(2-chloro-pyridin-3-ylmethyl)-4-(3,3-difluoro-pyrrolidin-1-yl)-1H-pyrazolo[3,4-d]pyrimidine], for which the half-maximal effective concentration (EC50) came to 1.57 µM on human CB1 receptor (setting [1]) and 0.0016 µM at human CB2 receptor (setting [2]).

Take `CC(C)(C)c1nc(N2CC[C@H](O)C2)c2cnn(Cc3ccccc3S(C)(=O)=O)c2n1` [Example 30, (S)-1-[6-tert-Butyl-1-(2-methanesulfonyl-benzyl)-1H-pyrazolo[3,4-d]pyrimidin-4-yl]-pyrrolidin-3-ol]: the EC50 was more than 10 µM at human CB1 receptor (setting [1]) and 0.0024 µM on human CB2 receptor (setting [2]).

On to `CCOc1nc(C(C)(C)C)nc2c1cnn2Cc1ccccc1Cl` [Example 5, 6-tert-Butyl-1-[(2-chlorophenyl)methyl]-4-ethoxy-1H-pyrazolo[3,4-d]pyrimidine], for which the concentration giving a half-maximal response (EC50) at human CB1 receptor (setting [1]) is more than 10 µM; at human CB2 receptor (setting [2]), 0.0255 µM.

As to `Cc1nonc1Cn1ncc2c(N3CCC(F)(F)C3)nc(C3CC3)cc21` [Example 27, 6-Cyclopropyl-4-(3,3-difluoro-pyrrolidin-1-yl)-1-(4-methyl-furazan-3-ylmethyl)-1H-pyrazolo[4,3-c]pyridine], the EC50 at human CB1 receptor (setting [1]) was more than 10 µM; on human CB2 receptor (setting [2]) it was 0.0425 µM.

For `COc1ccc(Cn2ncc3c(N4CCC(F)(F)C4)nc(C(C)(C)C)nc32)cc1` [Example 1, 6-tert-Butyl-4-(3,3-difluoro-pyrrolidin-1-yl)-[(4-methoxyphenyl)methyl]-1H-pyrazolo[3,4-d]pyrimidine], the EC50 on human CB1 receptor (setting [1]) was more than 10 µM; on human CB2 receptor (setting [2]), 0.0048 µM.

On to `CC(C)(C)c1nc(N2CC[C@H](O)C2)c2cnn(Cc3ccccc3C(F)(F)F)c2n1` [Example 29, (S)-1-[6-tert-Butyl-1-[(2-trifluoromethylphenyl)methyl]-1H-pyrazolo[3,4-d]pyrimidin-4-yl]pyrrolidin-3-ol], for which the 50% effective concentration (EC50) at human CB1 receptor (setting [1]) is more than 10 µM; on human CB2 receptor (setting [2]), 0.0019 µM.

On to `Cc1nnc(Cn2ncc3c(N4CC=C(F)C4)nc(C(C)(C)C)nc32)n1C` [Example 18, 6-tert-Butyl-1-(4,5-dimethyl-4H-[1,2,4]triazol-3-ylmethyl)-4-(3-fluoro-2,5-dihydro-pyrrol-1-yl)-1H-pyrazolo[3,4-d]pyrimidine], for which the figures for the EC50 on human CB1 receptor (setting [1]) and on human CB2 receptor (setting [2]) were more than 10 µM and 0.0262 µM, respectively.

As for `Cc1nnc(Cn2ncc3c(N4CCC(F)(F)C4)nc(C(C)(C)C)nc32)n1C` [Example 17, 6-tert-Butyl-4-(3,3-difluoro-pyrrolidin-1-yl)-1-(4,5-dimethyl-4H-[1,2,4]triazol-3-ylmethyl)-1H-pyrazolo[3,4-d]pyrimidine], the EC50 at human CB1 receptor (setting [1]) was more than 10 µM; at human CB2 receptor (setting [2]), 0.003 µM.

As for `CC(C)(C)c1nc(N2CCC(F)(F)C2)c2cnn(Cc3ccccc3Cl)c2n1` [Example 4, 6-tert-Butyl-1-[(2-chlorophenyl)methyl]-4-(3,3-difluoro-pyrrolidin-1-yl)-1H-pyrazolo[3,4-d]pyrimidine], the EC50 on human CB1 receptor (setting [1]) was more than 10 µM; on human CB2 receptor (setting [2]) it was 0.0042 µM.

As to `Cn1nnnc1Cn1ncc2c(N3CCC(F)(F)C3)nc(C(C)(C)C)nc21` [Example 15, 6-tert-Butyl-4-(3,3-difluoro-pyrrolidin-1-yl)-1-(1-methyl-1H-tetrazol-5-ylmethyl)-1H-pyrazolo[3,4-d]pyrimidine], the figures for the concentration for a half-maximal effect (EC50) at human CB1 receptor (setting [1]) and at human CB2 receptor (setting [2]) were more than 10 µM and 0.0009 µM, respectively.
